Experiment [1] addresses PRMT1 (Homo sapiens, UniProt Q99873). The experiment is described as follows: PRMT1 enzyme activity test. The format is biochemical. The following applies: 0.5 nM PRMT1, 3H-SAM, peptide. The gist of the method:
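Radiometric methylation assay: 0.5 nM PRMT1 preincubated 15 min at room temperature with compound (10-point 3-fold series, 1% DMSO) in pH 8.0 Tris buffer with Tween-20 and DTT. 0.25 uM ³H-SAM and 0.1 uM biotinylated peptide then reacted 120 min. Product captured on streptavidin FlashPlate and counted; IC50 from four-parameter fit of % inhibition.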

In experiment [2] the target is T1, PRMT7 (Homo sapiens, UniProt Q9NVM4).
T1 sequence (Q9NVM4 1-692): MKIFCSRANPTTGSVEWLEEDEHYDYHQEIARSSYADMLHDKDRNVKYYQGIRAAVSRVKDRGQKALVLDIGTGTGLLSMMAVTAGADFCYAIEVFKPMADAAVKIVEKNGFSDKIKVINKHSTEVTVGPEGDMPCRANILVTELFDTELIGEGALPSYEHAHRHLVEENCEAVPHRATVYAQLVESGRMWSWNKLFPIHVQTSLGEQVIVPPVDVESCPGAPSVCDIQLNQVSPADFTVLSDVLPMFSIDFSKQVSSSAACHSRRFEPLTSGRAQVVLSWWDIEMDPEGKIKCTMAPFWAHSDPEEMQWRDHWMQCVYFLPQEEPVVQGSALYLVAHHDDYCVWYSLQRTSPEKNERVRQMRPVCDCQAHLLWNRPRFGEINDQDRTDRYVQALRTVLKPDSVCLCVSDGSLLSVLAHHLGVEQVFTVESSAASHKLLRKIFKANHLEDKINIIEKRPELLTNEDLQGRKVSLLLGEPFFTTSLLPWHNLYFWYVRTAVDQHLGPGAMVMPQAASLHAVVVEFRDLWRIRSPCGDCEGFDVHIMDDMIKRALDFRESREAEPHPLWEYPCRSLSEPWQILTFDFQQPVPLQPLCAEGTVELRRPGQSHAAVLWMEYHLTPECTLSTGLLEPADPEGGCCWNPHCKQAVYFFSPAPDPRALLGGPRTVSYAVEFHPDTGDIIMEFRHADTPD
The experiment is described as follows: PRMT panel selectivity test, PRMT7. The format is biochemical. As for the experimental part:
[The procedure below names another target; the source says it served here with some conditions changed.] PRMT1 enzyme activity test were performed in a buffer prepared on the same day 5 consisting of 10 mMTirs-HCl (pH=8.0), 0.01% Tween-20 and 1 mM DTT. The compounds were prepared to the highest inhibitor concentration ultimately required in the 100× reaction with 100% DMSO and then transferred to one well of a 384-well Echo plate (Echo-eligible 384-well polypropylene microplates 2.0, transparent, flat-bottomed) and sequentially diluted in the next well with a 3-fold dilution of 100% DMSO, and so on, with a total of 10 concentrations based on Precision. 100% DMSO was added to two empty wells to serve as control well without compound and control well without enzyme in the same 384-well Echo plate. 250 nL of compound was transferred from each well of the 384-well Echo plate to a 384-well assay plate (384-well polypropylene storage microplate) via the Echo 550 liquid processor. For wells with compounds and control well without compound, a mixture (15 uL) containing PRMT1 enzyme was added to the 384-well assay plate. For control wells without enzyme, the mixture containing the assay buffer (15 uL) was added instead. The compounds were allowed to incubate with PRMT1 for 15 minutes at room temperature, and then a mixture containing ^3H-SAM and peptide (10 uL) was added to start the reaction (final volume=25 uL). […] After 120 min of incubation, the assay was terminated by the addition of non-radiolabeled SAM (5 uL) to a final concentration of 125 uM, which diluted 3H-SAM to a level at which its incorporation into the peptide substrate was no longer detected. […] Plates were read on a microplate counter (MicroBeta2) to measure the amount of ^3H-labeled peptide bound to the surface of the detection plate, measured in counts per minute (cpm).
The raw data were copied from the Reader and the inhibition values were calculated in Excel by Equation (1), Equation (1): Inh %=(CPMmax−CPMcmpd)/(CPMmax−CPMmin)*100, wherein the Max signal was obtained from the enzyme-substrate interaction and the Min signal was obtained from the substrate. […]

Experiment [3] relates to MMA in RKO cells. As to the kind of experiment: RKO In Cell Western assay (MMA primary antibody). In kind it is cell-based. The note with it: Homo sapiens, 72 hours, read-out: RKO ICW_EC30. The essentials:
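After 72 h compound exposure at 37 °C, RKO cells (2,000/well) were fixed, permeabilized and probed with MMA primary antibody plus HRP secondary, TMB read at OD450. Signal normalized to Janus green OD595; activation % derived from OD450/OD595 relative to DMSO and 10 μM positive controls, 8-point threefold series from 5 μM.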

Sequence of PRMT1 (Q99873 whole entry): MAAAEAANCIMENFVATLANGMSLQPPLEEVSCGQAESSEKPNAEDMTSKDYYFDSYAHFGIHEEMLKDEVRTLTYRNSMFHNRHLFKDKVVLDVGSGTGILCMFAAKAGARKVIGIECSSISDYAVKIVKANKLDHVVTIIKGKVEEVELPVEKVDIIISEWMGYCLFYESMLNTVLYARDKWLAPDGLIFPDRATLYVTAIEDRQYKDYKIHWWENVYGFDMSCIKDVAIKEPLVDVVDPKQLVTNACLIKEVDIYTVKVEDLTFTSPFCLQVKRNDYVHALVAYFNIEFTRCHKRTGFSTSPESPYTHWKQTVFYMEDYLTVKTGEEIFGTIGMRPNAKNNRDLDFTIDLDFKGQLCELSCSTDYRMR

As for `CNCCN(C)Cc1ccccc1C1CCN(c2ccccc2)CC1` [P023], the IC50 (commonly the midpoint of a concentration-inhibition curve) in experiment [1] is under 0.05 µM; in experiment [2], at least 10 µM. Moreover, the EC30 in experiment [3] was under 0.25 µM.

Consider `CNCCN(C)Cc1ncccc1N1CCc2ccccc2CC1` [P118], for which the 50% inhibitory concentration (IC50) in experiment [1] is under 0.05 µM; in experiment [2] it was at least 10 µM. Moreover, the EC30 in experiment [3] was under 0.25 µM.

For `CCOCC1(COCC)CCC(c2cccnc2CN(C)CCNC)CC1` [P207], the IC50 in experiment [1] was under 0.05 µM; in experiment [2], at least 10 µM. In addition, the EC30 in experiment [3] is under 0.25 µM.

Values taken from patent publication US20240307409A1, “ARGININE METHYLTRANSFERASE INHIBITOR AND USE THEREOF” (Cytosinlab Therapeutics Co., Ltd., priority 2021, published 2024).
